PMC11571207, “Stereorandomized Oncocins with Preserved Ribosome Binding and Antibacterial Activity” (Journal of Medicinal Chemistry, 2024)
Values after ≈ are worked out from the molar mass of the structure shown. Non-standard residues stand in square brackets, D forms with d. Residues, ends and D or L forms follow the SMILES beside them. No end group written: not given here.

What was measured:
human red blood cells = test: Hemolysis assay, minimum hemolytic concentration; settings: for Haemolysis on hRBC, MHC: 2.5% human red blood cells (final) in 10 mM phosphate, 150 mM NaCl, pH 7.4, 25 °C, 4 h, visual inspection; for MHC human red blood cells: supplement CSV
A. baumannii ATCC19606 = test: microbe, parasite or virus in culture; settings: for MIC A. baumannii, 12.5% MHB / MIC A. baumannii, Full MHB: A. baumannii ATCC19606, 16–20 h at 37 °C; for MIC A. baumannii, 12.5% MHB: 12.5% Müller–Hinton medium; for MIC A. baumannii, Full MHB: full Müller–Hinton medium; for MIC A. baumannii ATCC19606: supplement CSV
Summary of the method: (§1)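 Read-out was visible growth after MTT addition, the MIC being the lowest inhibitory peptide concentration. Bacteria grown to log phase in LB were exposed in MH medium to peptide from 64 μg/mL in twofold dilutions for 15-18h at 37°C.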

P. aeruginosa PAO1 = test: microbe, parasite or virus in culture; settings: for MIC P. aeruginosa, 12.5% MHB / MIC P. aeruginosa, Full MHB: P. aeruginosa PAO1, 16–20 h at 37 °C; for MIC P. aeruginosa, 12.5% MHB: 12.5% Müller–Hinton medium; for MIC P. aeruginosa, Full MHB: full Müller–Hinton medium; for MIC P. aeruginosa PAO1: supplement CSV
Summary of the method: as §1

S. aureus COL (MRSA) = test: microbe, parasite or virus in culture; settings: for MIC S. aureus, 12.5% MHB / MIC S. aureus, Full MHB: S. aureus COL (MRSA), 16–20 h at 37 °C; for MIC S. aureus, 12.5% MHB: 12.5% Müller–Hinton medium; for MIC S. aureus, Full MHB: full Müller–Hinton medium; for MIC S. aureus COL (MRSA): supplement CSV
Summary of the method: as §1

K. pneumoniae NCTC 418 = test: microbe, parasite or virus in culture; settings: for MIC K. pneumoniae, 12.5% MHB / MIC K. pneumoniae, Full MHB: K. pneumoniae NCTC 418, 16–20 h at 37 °C; for MIC K. pneumoniae, 12.5% MHB: 12.5% Müller–Hinton medium; for MIC K. pneumoniae, Full MHB: full Müller–Hinton medium; for MIC K. pneumoniae NCTC418: supplement CSV
Summary of the method: as §1

E. coli W3110 = test: microbe, parasite or virus in culture; settings: for MIC E. coli, 12.5% MHB / MIC E. coli, Full MHB: E. coli W3110, 16–20 h at 37 °C, broth microdilution; for MIC E. coli, 12.5% MHB: 12.5% Müller–Hinton medium; for MIC E. coli, Full MHB: full Müller–Hinton medium; for MIC E. coli W3110: supplement CSV
Summary of the method: as §1

| Molecule | Haemolysis on hRBC, MHC (human red blood cells) [µg/mL] | MHC human red blood cells (human red blood cells) [µg/mL] | MIC A. baumannii, 12.5% MHB (A. baumannii ATCC19606) [µg/mL] | MIC A. baumannii, Full MHB (A. baumannii ATCC19606) [µg/mL] | MIC A. baumannii ATCC19606 (A. baumannii ATCC19606; 12.5% MH pH 7.4) [µg/mL] | MIC A. baumannii ATCC19606 (A. baumannii ATCC19606; full MH pH 7.4) [µg/mL] | MIC P. aeruginosa, 12.5% MHB (P. aeruginosa PAO1) [µg/mL] | MIC P. aeruginosa, Full MHB (P. aeruginosa PAO1) [µg/mL] | MIC P. aeruginosa PAO1 (P. aeruginosa PAO1; 12.5% MH pH 7.4) [µg/mL] | MIC P. aeruginosa PAO1 (P. aeruginosa PAO1; full MH pH 7.4) [µg/mL] | MIC S. aureus, 12.5% MHB (S. aureus COL (MRSA)) | MIC S. aureus, Full MHB (S. aureus COL (MRSA)) | MIC S. aureus COL (MRSA) (S. aureus COL (MRSA); 12.5% MH pH 7.4) [µg/mL] | MIC S. aureus COL (MRSA) (S. aureus COL (MRSA); full MH pH 7.4) [µg/mL] | MIC K. pneumoniae, 12.5% MHB (K. pneumoniae NCTC 418) [µg/mL] | MIC K. pneumoniae, Full MHB (K. pneumoniae NCTC 418) [µg/mL] | MIC K. pneumoniae NCTC418 (K. pneumoniae NCTC 418; 12.5% MH pH 7.4) [µg/mL] | MIC K. pneumoniae NCTC418 (K. pneumoniae NCTC 418; full MH pH 7.4) [µg/mL] | MIC E. coli, 12.5% MHB (E. coli W3110) [µg/mL] | MIC E. coli, Full MHB (E. coli W3110) [µg/mL] | further results |
| --- | --- | --- | --- | --- | --- | --- | --- | --- | --- | --- | --- | --- | --- | --- | --- | --- | --- | --- | --- | --- | --- |
| CC[C@H](C)[C@H](NC(=O)[C@H](CCCNC(=N)N)NC(=O)[C@H](CCCNC(=N)N)NC(=O)[C@@H]1CCCN1C(=O)[C@@H]1CCCN1C(=O)[C@H](CCCNC(=N)N)NC(=O)[C@@H]1CCCN1C(=O)[C@H](CCCNC(=N)N)NC(=O)[C@@H]1CCCN1C(=O)[C@H](CC(C)C)NC(=O)[C@@H](Cc1ccc(O)cc1)NC(=O)[C@@H]1CCCN1C(=O)[C@@H]1CCCN1C(=O)[C@H](CCCCN)NC(=O)[C@H](CC(=O)O)NC(=O)[C@@H](N)C(C)C)C(=O)N[C@@H](Cc1ccc(O)cc1)C(=O)N[C@@H](CC(N)=O)C(=O)N[C@@H](CCCNC(=N)N)C(N)=O [DY6-Onc] (H-VDKPP[dY]LPRPRPPRRIYNR-NH2) | >1000 | >1000 | 16 (≈ 6.69 µM) | > 64 | 16 (≈ 6.69 µM) | >64 | 16 (≈ 6.69 µM) | > 64 | 16 (≈ 6.69 µM) | >64 | >64 / 64 μg/mL | >64 / 64 μg/mL | 64 (≈ 26.8 µM) | >64 | 4 (≈ 1.67 µM) | 8 (≈ 3.35 µM) | 4 (≈ 1.67 µM) | 8 (≈ 3.35 µM) | 4 (≈ 1.67 µM) | 16 (≈ 6.69 µM) | MIC E. coli W3110 (E. coli W3110; 12.5% MH pH 7.4): 4 µg/mL (≈ 1.67 µM); MIC E. coli W3110 (E. coli W3110; full MH pH 7.4): 16 µg/mL (≈ 6.69 µM) |
| VDKPPYLPRPRPPRRIYNR [sr3N5Cterm-Onc] (VDKPPYLPRPRPPRRIYNR-NH2; also: residues 1-3 and 15-19 stereorandomized (1:1 L/D mixture)) | >1000 | >1000 | 4 | 32 | 4 | 32 | 8 | > 64 | 8 | >64 | >64 / 64 μg/mL | >64 / 64 μg/mL | 64 | >64 | 1 | 16 | 1 | 16 | 1 | 8 | MIC E. coli W3110 (E. coli W3110; 12.5% MH pH 7.4): 1 µg/mL; MIC E. coli W3110 (E. coli W3110; full MH pH 7.4): 8 µg/mL |
| VDKPPYLPRPRPPRRIYNR [sr3Nterm-Onc] (VDKPPYLPRPRPPRRIYNR-NH2; also: residues 1-3 stereorandomized (1:1 L/D mixture)) | >1000 | >1000 | 8 | 64 | 8 | 64 | 16 | > 64 | 16 | >64 | >64 / 64 μg/mL | >64 / 64 μg/mL | 64 | >64 | 2 | 16 | 2 | 16 | 2 | 16 | MIC E. coli W3110 (E. coli W3110; 12.5% MH pH 7.4): 2 µg/mL; MIC E. coli W3110 (E. coli W3110; full MH pH 7.4): 16 µg/mL |
| VDKPPYLPRPRPPRRIYNR [sr6Cterm-Onc] (VDKPPYLPRPRPPRRIYNR-NH2; also: residues 14-19 stereorandomized (1:1 L/D mixture)) | >1000 | >1000 | 4 | 32 | 4 | 32 | 4 | 64 | 4 | 64 | > 16 µg/mL | > 64 µg/mL | >16 | >64 | 1 | 4 | 1 | 4 | 1 | 8 | MIC E. coli W3110 (E. coli W3110; 12.5% MH pH 7.4): 1 µg/mL; MIC E. coli W3110 (E. coli W3110; full MH pH 7.4): 8 µg/mL |
| VDKPPYLPRPRPPRRIYNR [sr7Cterm-Onc] (VDKPPYLPRPRPPRRIYNR-NH2; also: residues 13-19 stereorandomized (1:1 L/D mixture)) | >1000 | >1000 | 4 | 32 | 4 | 32 | 4 | 64 | 4 | 64 | > 16 µg/mL | > 64 µg/mL | >16 | >64 | 1 | 4 | 1 | 4 | 1 | 8 | MIC E. coli W3110 (E. coli W3110; 12.5% MH pH 7.4): 1 µg/mL; MIC E. coli W3110 (E. coli W3110; full MH pH 7.4): 8 µg/mL |
| VDKPPYLPRPRPPRRIYNR [sr10Cterm-Onc] (VDKPPYLPRPRPPRRIYNR-NH2; also: residues 10-19 stereorandomized (1:1 L/D mixture)) | >1000 | >1000 | 4 | 64 | 4 | 64 | 8 | 64 | 8 | 64 | 32 µg/mL | > 64 µg/mL | 32 | >64 | 4 | 8 | 4 | 8 | 4 | 16 | MIC E. coli W3110 (E. coli W3110; 12.5% MH pH 7.4): 4 µg/mL; MIC E. coli W3110 (E. coli W3110; full MH pH 7.4): 16 µg/mL |
| VDKPPYLPRPRPPRRIYNR [sr11Cterm-Onc] (VDKPPYLPRPRPPRRIYNR-NH2; also: residues 9-19 stereorandomized (1:1 L/D mixture)) | >1000 | >1000 | 4 | 32 | 4 | 32 | 8 | > 64 | 8 | >64 | >64 / 64 μg/mL | >64 / 64 μg/mL | 64 | >64 | 4 | 16 | 4 | 16 | 4 | 16 | MIC E. coli W3110 (E. coli W3110; 12.5% MH pH 7.4): 4 µg/mL; MIC E. coli W3110 (E. coli W3110; full MH pH 7.4): 16 µg/mL |
